Patent EP1101492A1, “NOVEL REMEDIES FOR ALLERGIC DISEASES” (FUJI YAKUHIN KOGYO KABUSHIKI KAISHA, priority 1998, dated 2000)

Columns and labels:
[1] = tested on: mouse experimental atopic dermatitis models; test: Auricle edema in experimental atopic dermatitis model (anti-DNP IgE sensitization, DNFB elicitation); type: in vivo, Balb/c mice; settings: 60 µg/ear/dose in ethanol painted on auricles twice a day, 1 hour pre-elicitation, 6 hours, 1 to 6 days post-elicitation; for % Inhibition vLPR: 7 or 8 days post-elicitation; for % Inhibition IPR: 1 hour post-elicitation; for % Inhibition LPR: 1 day post-elicitation
Experimental: Intravenous injection of an anti-2,4-dinitrophenol (DNP) antibody (anti-DNP Ab, monoclonal IgE Ab; its antibody titer was 1 : 512 to 1 : 1024 by a rat heterologous passive cutaneous anaphylaxis reaction using a Wister rat) into a tail vein of female Balb/c mice (7-week old, body weight: 17 to 20 g, purchased from JAPAN SLC, Inc.) at a dose of […] per animal raised passive sensitization. Twenty four hours post-sensitization, 0.1% 2,4-dinitrofluorobenzene (DNFB; Nacalai Tesque, Inc.) in ethanol was painted onto both sides of a pair of mouse auricles at a dose of 10µL per each side for elicitation.
Fresh unsensitized mice were painted with 0.1% DNFB in ethanol onto their ear in the same manner as aforementioned and served as a control group. Not only immediately prior to elicitation but also 1 hour, 5 hours, daily between Days 1 and 14, and on Day 16 post-elicitation, ear thickness was measured using a dial thickness gauge (Peacock Co.). Each degree of auricle edemas was calculated: Auricular Edema (µm)=(Ear Thickness Post-Elicitation, µm) - (Ear Thickness immediately prior to Elicitation, µm) [formula]
Balb/c mice were passively sensitized with anti-DNP IgE Ab in the same manner as in Example 1. Twenty four hours later, 0.1% DNFB in ethanol was painted onto both sides of a pair of mouse auricles at a dose of 10 µL per each side for elicitation.
Immediately prior to elicitation, 1 hour and on Day 1 post-elicitation, auricle thickness was measured in the same manner as in Example 1. Each therapeutic efficacy is recorded as a percent inhibition wherein the "auricle edema (untreated group)" is used as a control. Auricle Edema Inhibition (%) = [ 1 -(Auricle Edema (Treated Group))/(Auricle Edema (Untreated Group))] × 100 (%) [formula]
Immediately prior to elicitation, and on Day 7 post-elicitation, auricle thickness was similarly measured. Each therapeutic efficacy is recorded as a percent inhibition wherein the auricle edema in the untreated group is used as a control.
Immediately prior to elicitation, and on Day 7 post-elicitation, auricle thickness was similarly measured. Each therapeutic efficacy is recorded as a percent inhibition wherein the auricle edema (untreated group) is used as a control.
Immediately prior to elicitation, at 1 and 4 hours and on Days 1, 3 and 7 post-elicitation, auricle thickness was similarly measured. From each auricle edema (µm) based on the auricle thickness immediately prior to elicitation, especially a prophylactically therapeutic efficacy of the test compound was evaluated.
Immediately prior to elicitation, at 0.5, 1 and 4 hours and on Days 1, 3 and 7 post-elicitation, auricle thickness was similarly measured. Each amount of auricle edemas was calculated (average± standard deviation).

[2] = tested on: guinea pig experimental bronchial asthma models; test: Experimental bronchial asthma model (ovalbumin inhalation): airway resistance and asthmatic death;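 further: female Std:Hartley guinea pigs sensitized by inhaling nebulized ovalbumin once daily for 8 consecutive days, 8 to 11 animals per group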; settings: test compounds 15 mg/kg s.c. (Compound No. 114: 30 mg/kg), prednisolone 10 mg/kg orally
Experimental: Guinea pigs (female, Std:Hartley, 3 weeks old, 200 to 250 g) were individually housed in a plastic chamber (width, 200 mm; depth, 300 mm; height, 167 mm). Aqueous ovalbumin (10 mg/mL) was administered to the guinea pigs once a day for sensitization by 10 min. inhalation with a nebulizer (5B, Nippon Shoji K.K.: flow rate, 6 L/min.) at a dose of 10 mg/mL during 8 cosecutive days. On Day 7 after the final sensitization, the guinea pigs were housed in a plastic chamber and inhaled using a nebulizer with a solution of ovalbumin (10 mg/mL) in physiological saline for 1 min. for elicitation (Matsumoto, T., et al., The Journal of Pharmacology and Experimental Therapeutics, 269: 1236-1244, 1994). The number of animals employed in the experiment was set to the extent there are at least 6 as individuals escaping asthmatic death. A solution of a test compound (Compound No. 130, 15 mg/kg) in water for injection was administered subcutaneously twice, i.e., 24 hours and 2 hours prior to elicitation. Similarly, the solvent alone was also administered to a negative control group. A suspension of prednisolone (10 mg/kg) in 0.5% aqueous methyl cellulose was administered orally twice, i.e., 24 hours and 2 hours prior to elicitation. Similarly, the solvent alone was also administered to another control group.
The evaluation for efficacies was conducted in terms of airway resistance. For this purpose, an apparatus dedicated to the measurement of airway resistance (K.K. Medical Agent) was employed. Measurement includes setting a guinea pig in a test chamber under a not-anesthetized condition, applying sinusoidal pressure waves of 30 Hz components to a part below the neck of the animal from the back side of the chamber, measuring respiratory waves of 30 Hz components leaking through the mouth (volume of 30 Hz air flow passing through the respiratory tract) in front of the neck, and calculating airway resistance mechanically. Measurement was carried out immediately prior to the first drug treatment (24 hours before elicitation), just prior to elicitation, 10 minutes, 1, 2, 4, 6, and 8 hours post-elicitation.
It was visually observed by a person carrying out said test in terms, of the appearance of cyanosis or suffocative death (asthmatic death) due to respiratory obstruction.
Guinea pigs were sensitized with ovalbumin and asthma was induced on Day 7 after final sensitization in the same manner as in Example 20. The number of animals employed in the experiment was set to the extent there are at least 6 as individuals escaping asthmatic death (8 to 11 animals/group). In the same manner as in Example 20, the animals were measured for airway resistance mechanically and each percent change (%) in airway resistance was calculated (each value just prior to elicitation was set as 100%). Each percent amelioration in airway resistance was calculated from the percent changes in airway resistance according to the following formula: Amelioration in Airway Resistance (%) = 1 -[((Percent Change in Airway Resistance after Drug-Administration) - (Value just prior to Challenge (100)))/((Percent Change in Airway Resistance after Solvent-Administration) - (Value just prior to Challenge (100)))]× 100 [formula]

[3] = tested on: mouse experimental atopic dermatitis models; test: Scratching behavior in experimental atopic dermatitis model; type: in vivo, mice; settings: for % Inhibition (scratching behavior) / Scratching Behavior (Times) (Average± Deviation): 0.1% solution in ethanol, 10 µL per side painted 1 hour pre-elicitation; for % Inhibition (scratching behavior): counts for 15 to 30 and 30 to 45 min post-elicitation, vs solvent control; for Scratching Behavior (Times) (Average± Deviation): counts for the 15 to 30 min and 30 to 45 min post-elicitation durations, 3 animals per group, solvent control 209.0 ± 70.4
allergic peritonitis = test: Allergic peritonitis induced with ovalbumin (peritoneal exudate cells); type: in vivo, Balb/c mice; settings: ovalbumin
Experimental: Twenty four hours after induction, mice were sacrificed under ether […] and each penitoneal cavity was lavaged twice or thrice with a washout medium (total volume: 5 mL, physiological saline containing 10 units/mL of heparin). Peritoneal exudate cells (PEC) were harvested in a siliconized glass tube. The retrieved washout medium was measured for its yield (mL) and the number of exudate cells therein by using Turk solution and counting on a haemocytometer and a total number of PEC was calculated. An aliquot thereof (an extent of approximately 20,000 cells of PEC) was taken. Specimens for staining were prepared using Cytospin 3 (CHANDON), and PEC was stained with Dif-Quick solution (International Reagents Corporation). After staining, PEC was subjected to fractional counts under a microscope with classification into eosinophils, neutrophils, lymphocytes/macrophages and basophils based on their form and stain nature (more than 500 PEC per specimen were randomly counted). […] After counting, intraperitoneal exudation inhibition rates were calculated by the following formula and expressed as the therapeutic efficacies: Inhibition Rate (%) =[1 -((PEC in Sensitized/Drug-Treated Mouse) - (PEC in Unsensitized/Saline-Treated Mouse))/((PEC in Sensitized/Saline-Treated Mouse) - (PEC in Unsensitized/Saline-Treated Mouse))]× 100 [formula]
A physiological saline solution containing ovalbumin (0.25 mg/mL) and an aluminum hydroxide gel (4 mg/mL) was administered subcutaneously to male Balb/c mice (7 weeks old, 20 to 23 g, purchased from JAPAN SLC, Inc.) twice at one week interval at a single dose of 0.4 mL for sensitization. On Day 14 after the initial sensitization, an antigen solution for induction (2.5 µg/mL) was administered intraperitoneally to each animal at a dose of 0.4 mL to raise allergic peritonitis. Compound No. 130 (30 mg/kg) or a negative control solvent, physiological saline (10 mL/kg), was administered intraperitoneally to each animal 5 minutes prior to induction, 3 and 6 hours post-induction.
Similarly to Example 24, the peritoneal cavities were lavaged to retrieve PEC. The drained liquids were measured for their yield and total PEC number therein. In the same manner as in Example 24, PEC was stained and subjected to fractional counting under a microscope based on their form. […] Similarly to Example 24, basophils and neutrophils were excluded from subjects to be examined. In the same manner as in Example 24, intraperitoneal exudation inhibition rates were calculated and expressed as the therapeutic efficacies.
In the same manner as in Example 25, male Balb/c mice were sensitized with ovalbumin and an aluminum hydroxide gel, and, on Day 14 after the initial sensitization, treated with an antigen solution to raise allergic peritonitis. Compound No. […]
Similarly to Example 24, the peritoneal cavities were lavaged to retrieve PEC 24 hours after induction. The drained liquids were measured for their yield and total PEC number therein.

[4] = 24 and 2 hours prior to elicitation, vs solvent control
[5] = 30 mg/kg s.c., lavage 24 hours post-induction
[6] = 30 mg/kg s.c. 1 hour prior to induction and 3 hours post-induction, lavage 6 hours post-induction

SMILES | % Inhibition vLPR [1] [%] | % Inhibition IPR [1] [%] | % Inhibition LPR [1] [%] | % Survival ([2]; asthmatic death within several minutes after elicitation, water for injection 54.5, 0.5% methyl cellulose 66.7) [%] | % Amelioration in Airway Resistance, 1 Hour after Elicitation [2, 4] [%] | % Amelioration in Airway Resistance, 6 Hours after Elicitation [2, 4] [%] | % Amelioration in Airway Resistance, Immediately after Elicitation [2, 4] [%] | % Inhibition (scratching behavior) [3] [%] | Scratching Behavior (Times) (Average± Deviation) [3] | Leukocyte exudate inhibition rate (%) (Macrophages)/(Lymphocytes) (allergic peritonitis; [5]) | Leukocyte exudate inhibition rate (%) Eosinophils (allergic peritonitis; [5]) [%] | Leukocyte exudate inhibition rate (%) Total PEC Number (allergic peritonitis; [5]) [%] | inhibitory efficacy on scratching in the 20 to 40 min post-elicitation duration ([3]; 0.3% Compound No. 125 vs 0.1% tacrolimus painted on auricles) | efficacy on mouse scratching behavior (FIG. 9) ([3]; 0.3% ethanolic solution, 10 µL per side painted on auricles 5 minutes pre-elicitation, observed 2 hours) | Leukocyte exudate inhibition rate (%) Eosinophils (allergic peritonitis; [6]) [%] | Leukocyte exudate inhibition rate (%) Neutrophils (allergic peritonitis; [6]) [%] | Leukocyte exudate inhibition rate (%) Total PEC Number (allergic peritonitis; [6]) [%]
CC(C)C[C@@H](C(=O)N[C@@H](Cc1ccc(CN)cc1)C(=O)O)C(CCCc1ccccc1)C(=O)NO.Cl (mixture of isomers) [Compound No. 114, N^a-[4-(N-Hydroxyamino)-2(R)-isobutyl-3(RS)-(3-phenylpropyl)succinyl]-L-4'-aminomethylphenylalanine · 1 hydrochloride] | 52 | 71 | 62 | 70.0 | 39.4 | 69.4 | 54.0 | 30.3 | 345.7 ± 47.1 | 29.0 | 37.5 | 33.4 | – | – | – | – | –
CNC(=O)[C@H](Cc1ccc(N=C(N)N)cc1)NC(=O)C(CC(C)C)[C@H](CCCc1ccccc1)C(=O)NO.Cl (single isomer, unassigned) [Compound No. 125, N -[4-(N-Hydroxyamino)-2(R or S)-isobutyl-3(S)-(3-phenyltrimethylene)succinyl]-L-4'-guanidophenylalanine-N-methylamide 1 hydrochloride] | 31 | 56 | 58 | – | – | – | – | 40.7 | 124.0 ± 43.6 | 55.1 | 38.9 | 49.6 | higher than that of tacrolimus | apparently inhibits mouse scratching behavior | 38.4 | 41.4 | 40.9
CNC(=O)[C@H](CCCCN)NC(=O)[C@H](CC(C)C)C(CCCc1ccc(C(=O)OC)cc1)C(=O)NO.Cl (single isomer, unassigned) [Compound No. 129, N-[4-(N-Hydroxyamino)-2(R)-isobutyl-3(R or S)-[3-(p-methoxycarbonylphenyl)propyl)succinyl]-L-lysine N-methylamide 1 hydrochloride] | 35 | 28 | 53 | – | – | – | – | 31.1 | 144.0 ± 48.8 | 37.7 | 30.2 | 35.1 | – | – | 39.9 | 125.7 | 109.1
CNC(=O)[C@H](Cc1ccc(N=C(N)N)cc1)NC(=O)[C@@H](CC(=O)NO)CC(C)C.O=S(=O)(O)O [Compound No. 122, N-[4-(N-Hydroxyamino)-2(R)-isobutylsuccinyl]-L-4'-guanidophenylalanine-N-methylamide 1 sulfate] | 35 | 31 | 22 | – | – | – | – | 54.1 | 96.0 ± 32.6 | – | – | – | – | – | – | 27.1 | 38.6
COC(=O)[C@H](Cc1ccc(CN)cc1)NC(=O)[C@H](CC(C)C)[C@H](CCCc1ccccc1)C(=O)NO.Cl [Compound No. 132, N-[4-(N-Hydroxyamino)-2(R)-isobutyl-3(S)-(3-phenylpropyl)succinyl]-L-4'-aminomethylphenylalanine methyl ester 1 hydrochloride] | 46 | 20 | 39 | – | – | – | – | 49.9 | 104.7 ± 30.6 | 34.0 | 24.3 | 31.6 | – | – | – | – | –
